Where two headings read alike, the source gives them in different places.
Key:
Experiment in all cases: Test C pre/postemergence
Type in all cases: in vivo
[1] = system: cocklebur (Xanthium strumarium); details: Xanthium strumarium; for pest or weed control at 31 g/ha: 31 g ai/ha; for pest or weed control at 62 g/ha: 62 g ai/ha; for pest or weed control at 125 g/ha: 125 g ai/ha; for pest or weed control at 250 g/ha: 250 g ai/ha
In short: (§1)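 We sprayed seeded pots preemergence and 2–18 cm seedlings postemergence with test chemicals in a non-phytotoxic solvent mixture including surfactant. Greenhouse plants were visually compared with untreated controls at 12 to 14 days and scored 0 (no effect) to 100 (complete control).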

[2] = system: yellow nutsedge (Cyperus esculentus); details: Cyperus; for pest or weed control at 31 g/ha: 31 g ai/ha; for pest or weed control at 62 g/ha: 62 g ai/ha; for pest or weed control at 125 g/ha: 125 g ai/ha; for pest or weed control at 250 g/ha: 250 g ai/ha
In short: as §1

[3] = system: Surinam grass (Brachiaria decumbens); details: Urochloa decumbens; for pest or weed control at 125 g/ha: 125 g ai/ha; for pest or weed control at 31 g/ha: 31 g ai/ha; for pest or weed control at 62 g/ha: 62 g ai/ha; for pest or weed control at 250 g/ha: 250 g ai/ha
In short: as §1

[4] = system: crabgrass (Digitaria sanguinalis); details: Digitaria sanguinalis; for pest or weed control at 31 g/ha: 31 g ai/ha; for pest or weed control at 62 g/ha: 62 g ai/ha; for pest or weed control at 125 g/ha: 125 g ai/ha; for pest or weed control at 250 g/ha: 250 g ai/ha
In short: as §1

[5] = system: woolly cupgrass (Eriochloa villosa); details: Eriochloa villosa; for pest or weed control at 31 g/ha: 31 g ai/ha; for pest or weed control at 62 g/ha: 62 g ai/ha; for pest or weed control at 125 g/ha: 125 g ai/ha; for pest or weed control at 250 g/ha: 250 g ai/ha
In short: as §1

[6] = system: common (oilseed) sunflower (Helianthus annuus); details: Helianthus annuus, pre-emergence, Preemergence, read-out: Plant response rating, Sunflower
In short: as §1

[7] = system: velvetleaf (Abutilon theophrasti); details: Abutilon theophrasti, post-emergence, Postemergence
In short: as §1

[8] = post-emergence, Postemergence, scale 0 to 100 (0 no effect, 100 complete control), read-out: Cocklebur plant response rating
[9] = pre-emergence, Preemergence, scale 0 to 100, 0 no effect, 100 complete control, read-out: Plant response rating, Cocklebur
[10] = pre-emergence, Preemergence, scale 0 to 100, read-out: Plant response rating, Cocklebur
[11] = post-emergence, Postemergence, scale 0 to 100 (0 no effect, 100 complete control), read-out: Nutsedge, Yellow plant response rating
[12] = pre-emergence, Preemergence, scale 0 to 100, 0 no effect, 100 complete control, read-out: Plant response rating, Nutsedge, Yellow
[13] = pre-emergence, Preemergence, scale 0 to 100, read-out: Plant response rating, Nutsedge, Yellow
[14] = post-emergence, Postemergence, scale 0 to 100 (0 no effect, 100 complete control), read-out: Surinam Grass plant response rating
[15] = pre-emergence, Preemergence, scale 0 to 100, 0 no effect, 100 complete control, read-out: Plant response rating, Surinam Grass
[16] = pre-emergence, Preemergence, scale 0 to 100, read-out: Plant response rating, Surinam Grass
[17] = post-emergence, Postemergence, scale 0 to 100 (0 no effect, 100 complete control), read-out: Crabgrass plant response rating
[18] = pre-emergence, Preemergence, scale 0 to 100, 0 no effect, 100 complete control, read-out: Plant response rating, Crabgrass
[19] = pre-emergence, Preemergence, scale 0 to 100, read-out: Plant response rating, Crabgrass
[20] = post-emergence, Postemergence, scale 0 to 100 (0 no effect, 100 complete control), read-out: Cupgrass, Woolly plant response rating
[21] = pre-emergence, Preemergence, scale 0 to 100, 0 no effect, 100 complete control, read-out: Plant response rating, Cupgrass, Woolly
[22] = pre-emergence, Preemergence, scale 0 to 100, read-out: Plant response rating, Cupgrass, Woolly

**Q.** COC(=O)c1nc(C(C)C)nc(N)c1Br [Compound 3] was tested. Which pest or weed control at 31 g/ha ([1]; post-emergence, Postemergence, read-out: Plant response rating (scale of 0 to 100), Cocklebur) did it give?
**A.** 60%

**Q.** And the pest or weed control at 62 g/ha [1, 8]?
**A.** 65%

**Q.** What about the pest or weed control at 125 g/ha [1, 8] of the same molecule?
**A.** 75%

**Q.** And the pest or weed control at 250 g/ha ([1]; post-emergence, Postemergence, scale 0 to 100, read-out: Plant response rating, Cocklebur)?
**A.** 90%

**Q.** What about the pest or weed control at 31 g/ha [1, 9] of the same molecule?
**A.** 0%

**Q.** And the pest or weed control at 62 g/ha [1, 9]?
**A.** 30%

**Q.** What about the pest or weed control at 125 g/ha [1, 10] of the same molecule?
**A.** 55%

**Q.** And the pest or weed control at 250 g/ha [1, 10]?
**A.** 70%

**Q.** And the pest or weed control at 31 g/ha ([2]; post-emergence, Postemergence, read-out: Plant response rating (scale of 0 to 100), Nutsedge, Yellow)?
**A.** 0%

**Q.** And the pest or weed control at 62 g/ha [2, 11]?
**A.** 0%

**Q.** What about the pest or weed control at 125 g/ha [2, 11] of the same molecule?
**A.** 0%

**Q.** What about the pest or weed control at 250 g/ha ([2]; post-emergence, Postemergence, scale 0 to 100, read-out: Plant response rating, Nutsedge, Yellow) of the same molecule?
**A.** 0%

**Q.** What about the pest or weed control at 31 g/ha [2, 12] of the same molecule?
**A.** 0%

**Q.** And the pest or weed control at 62 g/ha [2, 12]?
**A.** 0%

**Q.** What about the pest or weed control at 125 g/ha [2, 13] of the same molecule?
**A.** 0%

**Q.** And the pest or weed control at 250 g/ha [2, 13]?
**A.** 0%

**Q.** And the pest or weed control at 125 g/ha [3, 14]?
**A.** 0%

**Q.** What about the pest or weed control at 31 g/ha ([3]; post-emergence, Postemergence, read-out: Plant response rating (scale of 0 to 100), Surinam Grass) of the same molecule?
**A.** 0%

**Q.** What about the pest or weed control at 62 g/ha [3, 14] of the same molecule?
**A.** 0%

**Q.** What about the pest or weed control at 250 g/ha ([3]; post-emergence, Postemergence, scale 0 to 100, read-out: Plant response rating, Surinam Grass) of the same molecule?
**A.** 0%

**Q.** What about the pest or weed control at 31 g/ha [3, 15] of the same molecule?
**A.** 0%

**Q.** And the pest or weed control at 62 g/ha [3, 15]?
**A.** 0%

**Q.** And the pest or weed control at 125 g/ha [3, 16]?
**A.** 0%

**Q.** What about the pest or weed control at 250 g/ha [3, 16] of the same molecule?
**A.** 0%

**Q.** What about the pest or weed control at 31 g/ha ([4]; post-emergence, Postemergence, read-out: Plant response rating (scale of 0 to 100), Crabgrass) of the same molecule?
**A.** 0%

**Q.** What about the pest or weed control at 62 g/ha [4, 17] of the same molecule?
**A.** 0%

**Q.** What about the pest or weed control at 125 g/ha [4, 17] of the same molecule?
**A.** 0%

**Q.** What about the pest or weed control at 250 g/ha ([4]; post-emergence, Postemergence, scale 0 to 100, read-out: Plant response rating, Crabgrass) of the same molecule?
**A.** 0%

**Q.** And the pest or weed control at 31 g/ha [4, 18]?
**A.** 0%

**Q.** And the pest or weed control at 62 g/ha [4, 18]?
**A.** 0%

**Q.** What about the pest or weed control at 125 g/ha [4, 19] of the same molecule?
**A.** 0%

**Q.** And the pest or weed control at 250 g/ha [4, 19]?
**A.** 0%

**Q.** What about the pest or weed control at 31 g/ha ([5]; post-emergence, Postemergence, read-out: Plant response rating (scale of 0 to 100), Cupgrass, Woolly) of the same molecule?
**A.** 0%

**Q.** And the pest or weed control at 62 g/ha [5, 20]?
**A.** 0%

**Q.** And the pest or weed control at 125 g/ha [5, 20]?
**A.** 0%

**Q.** And the pest or weed control at 250 g/ha ([5]; post-emergence, Postemergence, scale 0 to 100, read-out: Plant response rating, Cupgrass, Woolly)?
**A.** 0%

**Q.** And the pest or weed control at 31 g/ha [5, 21]?
**A.** 0%

**Q.** What about the pest or weed control at 62 g/ha [5, 21] of the same molecule?
**A.** 0%

**Q.** And the pest or weed control at 125 g/ha [5, 22]?
**A.** 0%

**Q.** What about the pest or weed control at 250 g/ha [5, 22] of the same molecule?
**A.** 0%

**Q.** And the pest or weed control at 31 g/ha ([6]; 31 g ai/ha, scale 0 to 100, 0 no effect, 100 complete control)?
**A.** 0%

**Q.** What about the pest or weed control at 62 g/ha ([6]; 62 g ai/ha, scale 0 to 100, 0 no effect, 100 complete control) of the same molecule?
**A.** 0%

**Q.** What about the pest or weed control at 125 g/ha ([6]; 125 g ai/ha, scale 0 to 100) of the same molecule?
**A.** 0%

**Q.** And the pest or weed control at 250 g/ha ([6]; 250 g ai/ha, scale 0 to 100)?
**A.** 0%

**Q.** And the pest or weed control at 31 g/ha ([7]; 31 g ai/ha, read-out: Plant response rating (scale of 0 to 100), Velvetleaf)?
**A.** 25%

**Q.** What about the pest or weed control at 62 g/ha ([7]; 62 g ai/ha, scale 0 to 100 (0 no effect, 100 complete control), read-out: Velvetleaf plant response rating) of the same molecule?
**A.** 55%
